According to the supplement of paper PMC10307832:

Columns and labels:
Assay in all cases: relative viability (nuclei count vs DMSO), 5 days (fraction); higher = more cells survive
Seliciclib + Olaparib = compound: CC[C@H](CO)Nc1nc(NCc2ccccc2)c2ncn(C(C)C)c2n1 [Seliciclib] + O=C(c1cc(Cc2n[nH]c(=O)c3ccccc23)ccc1F)N1CCN(C(=O)C2CC2)CC1 [Olaparib] (partner 8 µM)
Summary of the method: (§1)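 Cells from lung cancer lines were seeded into 1536-well plates and, one day later, dosed by pin tool. Treatments were either a single drug or a fixed dose of an anchor drug with five library-drug doses (not always all listed) in √10 steps. After 5 days, nuclei were stained in a one-step fixation (final 0.05% Triton X-100, 1% formaldehyde, 1 ug/ml Hoechst) and counted on 4× images, and relative viability is the treated-to-vehicle nuclei ratio, as the median of duplicate plates.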

Seliciclib + Decitabine = compound: CC[C@H](CO)Nc1nc(NCc2ccccc2)c2ncn(C(C)C)c2n1 [Seliciclib] + Nc1ncn([C@H]2C[C@H](O)[C@@H](CO)O2)c(=O)n1 [Decitabine] (partner 2 µM)
Summary of the method: as §1

Seliciclib + AZD7762 = compound: CC[C@H](CO)Nc1nc(NCc2ccccc2)c2ncn(C(C)C)c2n1 [Seliciclib] + NC(=O)Nc1cc(-c2cccc(F)c2)sc1C(=O)N[C@H]1CCCNC1 [AZD7762] (partner 0.2 µM)
Summary of the method: as §1

Seliciclib + Lapatinib = compound: CC[C@H](CO)Nc1nc(NCc2ccccc2)c2ncn(C(C)C)c2n1 [Seliciclib] + CS(=O)(=O)CCNCc1ccc(-c2ccc3ncnc(Nc4ccc(OCc5cccc(F)c5)c(Cl)c4)c3c2)o1 [Lapatinib] (partner 2 µM)
Summary of the method: as §1

| Cell Line | relative viability (Seliciclib + Olaparib; first compound 0.08 µM) | relative viability (Seliciclib + Olaparib; first compound 0.253 µM) | relative viability (Seliciclib + Olaparib; first compound 0.8 µM) | relative viability (Seliciclib + Olaparib; first compound 2.53 µM) | relative viability (Seliciclib + Olaparib; first compound 8 µM) | relative viability (Seliciclib + Decitabine; first compound 0.08 µM) | relative viability (Seliciclib + Decitabine; first compound 0.253 µM) | relative viability (Seliciclib + Decitabine; first compound 0.8 µM) | relative viability (Seliciclib + Decitabine; first compound 2.53 µM) | relative viability (Seliciclib + Decitabine; first compound 8 µM) | relative viability (Seliciclib + AZD7762; first compound 0.08 µM) | relative viability (Seliciclib + AZD7762; first compound 0.253 µM) | relative viability (Seliciclib + AZD7762; first compound 0.8 µM) | relative viability (Seliciclib + AZD7762; first compound 2.53 µM) | relative viability (Seliciclib + AZD7762; first compound 8 µM) | relative viability (Seliciclib + Lapatinib; first compound 0.08 µM) | relative viability (Seliciclib + Lapatinib; first compound 0.253 µM) | relative viability (Seliciclib + Lapatinib; first compound 0.8 µM) | relative viability (Seliciclib + Lapatinib; first compound 2.53 µM) | relative viability (Seliciclib + Lapatinib; first compound 8 µM) |
| --- | --- | --- | --- | --- | --- | --- | --- | --- | --- | --- | --- | --- | --- | --- | --- | --- | --- | --- | --- | --- |
| NCI-H1755 | 0.882 | 0.914 | 0.873 | 0.885 | 0.846 | 0.71 | 0.644 | 0.719 | 0.759 | 0.721 | 0.447 | 0.408 | 0.481 | 0.488 | 0.617 | 1.02 | 1.02 | 1.02 | 0.963 | 1.03 |
| NCI-H1792 | 0.338 | 0.341 | 0.399 | – | 0.322 | 0.45 | 0.506 | 0.608 | – | 0.556 | 0.897 | 0.57 | 0.567 | – | 0.736 | 0.947 | 0.889 | 0.855 | 0.776 | 0.846 |
| NCI-H1793 | 0.942 | 0.655 | 0.834 | 1.09 | 0.761 | 0.496 | 0.47 | 0.477 | 0.539 | 0.529 | 0.51 | 0.45 | 0.547 | 0.792 | 1.09 | 0.888 | 0.54 | 0.583 | 0.77 | 0.655 |
| NCI-H1915 | 0.27 | 0.287 | 0.273 | 0.227 | 0.196 | 0.252 | 0.264 | 0.277 | 0.243 | 0.255 | 0.714 | 0.591 | 0.826 | 0.817 | 0.717 | 0.951 | 1.13 | 1.02 | 0.936 | 0.853 |
| NCI-H1944 | 0.377 | 0.394 | 0.348 | 0.425 | 0.392 | 0.471 | 0.43 | 0.467 | 0.519 | 0.405 | 0.521 | 0.473 | 0.503 | 0.584 | 0.636 | 0.842 | 0.788 | 0.859 | 0.619 | 0.449 |
| NCI-H1975 | 0.774 | 0.605 | 0.768 | 0.865 | 0.523 | 0.394 | 0.349 | 0.365 | 0.645 | 0.332 | 0.684 | 0.628 | 0.741 | 0.613 | 0.758 | 0.867 | 0.834 | 0.868 | 0.759 | 0.716 |
| NCI-H1993 | 0.892 | 0.935 | 1.05 | 0.976 | 1.01 | 0.62 | 0.549 | 0.632 | 0.54 | 0.441 | 0.778 | 0.739 | 0.843 | 0.662 | 0.63 | 0.845 | 0.848 | 0.838 | 0.773 | 0.797 |
| NCI-H2085 | 0.734 | 0.845 | 0.73 | 0.738 | 0.63 | 0.518 | 0.501 | 0.563 | 0.49 | 0.483 | 0.948 | 0.962 | 0.998 | 1.03 | 0.868 | 0.739 | 0.793 | 0.667 | 0.635 | 0.497 |
